How the values were obtained:
[1] = Turbidity (OD660) after anaerobic culture of bacterial strains in PYGA, PYSA or PYXA medium
Protocol: (§1) A frozen stock solution of each bacterial strain (a 10% (w/v) skim milk-2% sodium glutamate solution in which bacterial cells were suspended) (cell count: 2.0 to 5.5×10^10 cells/mL) was thawed, and the solution was inoculated at 1% to 4 mL of a PY liquid medium supplemented with 33 mM sodium acetate and 0.5 (w/v) % glucose (PYGA medium), followed by anaerobic culture at 37° C. for 24 hours. After the culture, the culture solution was inoculated at 1% to a fresh PYGA medium, followed by anaerobic culture at 37° C. for 24 hours. After the culture, the turbidity (OD660) of the culture solution was measured. Then, the culture solution was inoculated at 1% to a PY medium containing 0.5 (w/v) % L-sorbose or D-xylitol and 33 mM sodium acetate (the medium containing L-sorbose: PYSA, and the medium containing D-xylitol: PYXA), followed by anaerobic culture at 37° C. for 24 hours. Then, the turbidity (OD660) was measured.

[2] = Production of butyrate by each bacterial strain from L-sorbose and D-xylitol (ion-exclusion HPLC); conditions: 24 hours, minus PYA blank
Protocol: as §1
After the completion of the culture, the organic acid concentration in the culture solution was quantified by ion-exclusion HPLC. In this operation, a culture solution in a PY medium supplemented with sodium acetate but without L-sorbose or D-xylitol (PYA medium) was used as a blank.
(HPLC Analysis Conditions) • Eluent: 15 mM perchloric acid-7% acetonitrile • pH adjuster: 15 mM perchloric acid-60 mM • tris(hydroxymethyl)aminomethane-7% acetonitrile • Separation column: Organic acid analysis column RSpak KC- • 811×2 (manufactured by Showa Denko K.K.) • Column temperature: 42° C. • Injected sample volume: 10 μL • Flow rate: 1.0 mL/min • Analysis time: 35 min • Detector: Waters 432 electric conductivity detector • Cell temperature: 45° C.
The amount of butyrate produced was calculated according to (Expression 1). Amount of butyrate produced=(Amount of butyrate produced by culture for 24 hours in a PYSA or PYXA medium)−(Amount of butyrate produced by culture for 24 hours in a PYA medium) (Expression 1)

[3] = Amount of butyrate produced by culture in PYA medium supplemented with acetate and lactate; conditions: PYA medium (33 mM sodium acetate) with 40 mM sodium lactate, 37° C. 24 hours, minus PYA without lactate
Protocol: Each bacterial solution cultured in a PYGA liquid medium under the same conditions as those described in the preceding paragraph 1) was inoculated at 1% to a PYA medium containing 33 mM sodium acetate and further supplemented with 40 mM sodium lactate, followed by anaerobic culture at 37° C. for 24 hours. After the completion of the culture, the organic acid concentration in the culture solution was analyzed by ion-exclusion HPLC. The analysis conditions were the same as those described in the preceding paragraph 1). The amount of butyrate produced was calculated according to (Expression 2). Amount of butyrate produced=(Amount of butyrate produced by culture for 24 hours in a PYA medium supplemented with 40 mM sodium lactate)−(Amount of butyrate produced by culture for 24 hours in a PYA medium without 40 mM sodium lactate) (Expression 2)

[4] = Biochemical properties: enzymatic activity (API-ZYM, Rapid ID32A API, API KENKI 20A); set-up: key: +: positive reaction; −: negative reaction; +^w: weak reaction
Source text: (§2) Commercially available API-ZYM, Rapid ID32A API, and API KENKI 20A (SYSMEX bioMerieux Co., Ltd.) were used in the testing of biochemical properties of various bacterial strains. The testing method followed the product manuals.

[5] = Biochemical properties: saccharide fermentability (API-ZYM, Rapid ID32A API, API KENKI 20A); set-up: key: +: positive reaction; −: negative reaction; +^w: weak reaction
Source text: as §2

[6] = Evaluation of ability to produce butyrate from indigestible saccharides (Example 3)
Source text: Galactooligosaccharide (GOS), maltitol, D-mannitol, lactitol, isomalt, isomaltulose, L-sorbose and D-sorbitol were used as indigestible saccharides. These indigestible saccharides used, except for GOS, were reagent grade. GOS used was commercially available Oligomate 55N (Yakult Pharmaceutical Industry Co., Ltd.) from which monosaccharide and lactose fractions (fractions digestible and absorbable by the upper gastrointestinal tract) had been removed using an activated carbon column. Specifically, a saccharide solution diluted with purified water was added to a column packed with activated carbon (manufactured by Wako Pure Chemical Industries, Ltd.) swollen in purified water, and the column was washed with a 2% ethanol solution, followed by the elution of an indigestible fraction with a 50% ethanol solution. The eluate was dried under reduced pressure, and the obtained GOS saccharide solution was used.
A. hadrus YIT 10092^T (DSM 3119^T), which is a type strain of A. hadrus (a typical human intestinal butyrate-producing bacterium), and two isolates were used.
Each of these bacterial strains was anaerobically cultured at 37° C. for 24 hours in a PYA medium containing 33 mM sodium acetate supplemented with 0.5% D-glucose (PYGA medium). The culture solution was inoculated at 1% to a PYA medium containing 0.5 (w/v) % of each indigestible saccharide (test medium), followed by anaerobic culture at 37° C. for 24 hours. After the completion of the culture, the organic acid concentration in the culture solution was analyzed by ion-exclusion HPLC. The analysis conditions were the same as those described above in Example 2. After the quantification of the organic acid concentration, the amount of butyrate produced from each indigestible saccharide and the ratio of butyrate to total short-chain fatty acids were calculated according to the following expressions. (Amount of butyrate produced)=(Amount of butyrate in the test medium after culture)−(Amount of butyrate in a PYA medium without each indigestible saccharide after culture) (Ratio of butyrate)=(Amount of butyrate in the test medium after culture)/((Amount of acetate+Amount of propionate+Amount of butyrate) in the test medium after culture)×100 (Expression 3)

## A. hadrus (Eubacterium hadrum) YIT 12354 (NITE BP-01831)
[1]; after anaerobic culture at 37° C. for 24 hours in PYGA liquid medium
  Turbidity (OD660): 2.76
[1]; anaerobic culture at 37° C. for 24 hours of 1% inoculum in PYSA (L-sorbose)
  Turbidity (OD660): 2.26
[1]; anaerobic culture at 37° C. for 24 hours of 1% inoculum in PYXA (D-xylitol)
  Turbidity (OD660): 1.09
[2]; D-Xylitol 0.5 (w/v) %, PYXA medium
  Amount of butyrate produced: 31.0 mmol/L
[2]; L-Sorbose 0.5 (w/v) %, PYSA medium
  Amount of butyrate produced: 14.8 mmol/L
[3]
  Amount of butyrate produced: 16.5 mmol/L
[4]
  Acid phosphatase: +
  Alkaline phosphatase: +
  Esterase (C4): −
  Naphthol-AS-B1-phosphohydrolase: +
  α-Glucosidase: −
  β-Galactosidase: +
  β-Galactosidase-6-phosphate: −
[5]
  Aesculin: −
  D-Cellobiose: −
  D-Mannitol: +
  D-Raffinose: +^w
  D-Xylose: +
  Glycerol: −
  L-Arabinose: +
  L-Rhamnose: −
  L-Sorbitol: +
  Mallose: +^w
  Salicin: −
[6]; PYA medium with 0.5 (w/v) % of each indigestible saccharide, versus type strain, FIGS. 3 and 4
  ability to utilize indigestible saccharides: more than the type strain YIT 10092^T
[6]; from indigestible saccharides, versus type strain, FIG. 3
  Amount of butyrate produced: larger
[6]; versus type strain YIT 10092^T, FIG. 4
  ratio of butyrate to total short-chain fatty acids: higher than that of the type strain YIT 10092^T

Reference: US10293004B2, “Butyrate-producing bacterium and use thereof” (KABUSHIKI KAISHA YAKULT HONSHA, priority 2014, dated 2019)
